Target: T1, CDK2 (Homo sapiens, UniProt P24941)
T1 construct: endogenous in cells; host or cells: OVCAR3 cells
Assay: Phospho-RB measurement in OVCAR3 cells (HTRF phospho-RB cellular kit)
Assay type: cell-based
Settings: inhibition of RB phosphorylation at S807/811 (HTRF, TR-FRET ratio 665/620), 24 h compound treatment, 0.3 to 10,000 nM
Protocol: Biological Example 1: Phospho-RB Measurement in OVCAR3 Cells
The ability of compounds of Formula (I) to inhibit CDK2 was determined in OVCAR3 cells by measuring inhibition of phosphorylation of RB protein at S780 and S807/811. Phosphorylation of RB protein at S807/811 were measured using HTRF phospho-RB cellular kits (Cat #64RBS807PEG) from Cisbio.
On Day 1, OVCAR3 cells were seeded into 96-well tissue-culture treated plates at 20,000 cells/well in 200 μL and incubated overnight at 37° C. in CO2 atmosphere. On Day 2, the cells were treated with test compounds at concentrations from 0.3 to 10,000 nM using HP D300 digital dispenser. Twenty-four hours after compound treatment, cell culture media was removed by flicking the plate and tapping the plate against clean paper towel. Immediately 30 μL 1× lysis buffer was supplemented from the kit and the plate was incubated at room temperature on shaker for 30 min. After homogenization by pipetting up and down, 8 μL cell lysate from 96-well cell culture plate was transferred to 384-well small volume white detection plate. 2 μL premixed detection solution was added and the plate was covered with sealer. To prepare the detection solution, d2 conjugated-phospho-RB antibody and Eu-cryptate conjugated phosphor-RB antibody were diluted into detection buffer following manufacturer's instruction.
Detection plates were incubated for 4 h at room temperature and read on ClarioStar (BMG Labtech) in TR-FRET mode ([…]). The TR-FRET ratio (665 nM/620 nM) was plotted against the compound concentration and normalized to DMSO controls. Half maximal inhibition concentration (IC50) values are calculated with a four-parameter logistic fit using GraphPad Prism (version 8; La Jolla, CA).

SMILES	IC50
O=S1(=O)CC2(CC(Nc3nccc(-c4sc(C56CC(C5)C6)nc4-c4cccc(NS(=O)(=O)N5CCc6ccc(Cl)cc65)c4F)n3)C2)C1 [Example 21, N-(3-(2-(bicyclo [1.1.1]pentan-1-yl)-5-(2-((2,2-dioxido-2-thiaspiro[3.3]heptan-6-yl)amino)-pyrimidin-4-yl)thiazol-4-yl)-2-fluorophenyl)-6-chloroindoline-1-sulfonamide]	55.7 nM
CN(C)c1ccc2c(c1)N(S(=O)(=O)Nc1cccc(-c3nc(C45CC(C4)C5)sc3-c3ccnc(NC4CC5(C4)CS(=O)(=O)C5)n3)c1F)CC2 [Example 22, N-(3-(2-(bicyclo [1.1.1]pentan-1-yl)-5-(2-((2,2-dioxido-2-thiaspiro [3.3]heptan-6-yl)amino)-pyrimidin-4-yl)thiazol-4-yl)-2-fluorophenyl)-6-(dimethylamino)-indoline-1-sulfonamide]	477 nM
COc1cccc2c1CN(S(=O)(=O)Nc1cccc(-c3nc(C45CC(C4)C5)sc3-c3ccnc(NC4CC5(C4)CS(=O)(=O)C5)n3)c1F)C2 [Example 23, N-(3-(2-(bicyclo [1.1.1]pentan-1-yl)-5-(2-((2,2-dioxido-2-thiaspiro[3.3]heptan-6-yl)amino)-pyrimidin-4-yl)thiazol-4-yl)-2-fluorophenyl)-4-methoxyisoindoline-2-sulfonamide]	136 nM
O=S1(=O)CC2(CC(Nc3nccc(-c4sc(C56CC(C5)C6)nc4-c4cccc(NS(=O)(=O)N5Cc6cccc(OC(F)F)c6C5)c4F)n3)C2)C1 [Example 24, N-(3-(2~(bicyclo [1.1.1]pentan-1-yl)-5-(2-((2,2-dioxido-2-thiaspiro[3.3]heptan-6-yl)amino)-pyrimidin-4-yl)thiazol-4-yl)-2-fluorophenyl)-4-(difluoromethoxy)-isoindoline-2-sulfonamide]	102 nM
O=S1(=O)CC2(CC(Nc3nccc(-c4sc(C56CC(C5)C6)nc4-c4cccc(NS(=O)(=O)N5Cc6cccc(C(F)(F)F)c6C5)c4F)n3)C2)C1 [Example 25, N-(3-(2-(bicyclo [1.1.1]pentan-1-yl)-5-(2-((2,2-dioxido-2-thiaspiro[3.3]heptan-6-yl)amino)-pyrimidin-4-yl)thiazol-4-yl)-2-fluorophenyl)-4-(trifluoromethyl)-isoindoline-2-sulfonamide]	75.1 nM
C#Cc1ccc2c(c1)N(S(=O)(=O)Nc1cccc(-c3nc(C45CC(C4)C5)sc3-c3ccnc(NC4CC5(C4)CS(=O)(=O)C5)n3)c1F)CC2 [Example 26, N-(3-(2-(bicyclo [1.1.1]pentan-1-yl)-5-(2-((2,2-dioxido-2-thiaspiro[3.3]heptan-6-yl)amino)-pyrimidin-4-yl)thiazol-4-yl)-2-fluorophenyl)-6-ethynylindoline-1-sulfonamide]	160 nM
O=S1(=O)CC2(CC(Nc3nccc(-c4sc(C56CC(C5)C6)nc4-c4cccc(NS(=O)(=O)N5CCc6ccc(C(F)F)cc65)c4F)n3)C2)C1 [Example 27, N-(3-(2-(bicyclo [1.1.1]pentan-1-yl)-5-(2-((2,2-dioxido-2-thiaspiro[3.3]heptan-6-yl)amino)-pyrimidin-4-yl)thiazol-4-yl)-2-fluorophenyl)-6-(difluoromethyl)-indoline-1-sulfonamide]	161 nM
O=S1(=O)CC2(CC(Nc3nccc(-c4sc(C56CC(C5)C6)nc4-c4cccc(NS(=O)(=O)N5Cc6cccc(C(F)F)c6C5)c4F)n3)C2)C1 [Example 28, N-(3-(2-(bicyclo [1.1.1]pentan-1-yl)-5-(2-((2,2-dioxido-2-thiaspiro[3.3]heptan-6-yl)amino)-pyrimidin-4-yl)thiazol-4-yl)-2-fluorophenyl)-4-(difluoromethyl)-isoindoline-2-sulfonamide]	71.9 nM
O=S1(=O)CC2(CC(Nc3nccc(-c4sc(C56CC(C5)C6)nc4-c4cccc(NS(=O)(=O)N5CCc6ccc(F)cc65)c4F)n3)C2)C1 [Example 29, N-(3-(2-(bicyclo [1.1.1]pentan-1-yl)-5-(2-((2,2-dioxido-2-thiaspiro[3.3]heptan-6-yl)amino)-pyrimidin-4-yl)thiazol-4-yl)-2-fluorophenyl)-6-fluoroindoline-1-sulfonamide]	70.8 nM
CN1CC2CCC(C1)N2c1nc(-c2cccc(NS(=O)(=O)N3Cc4cccc(OC(F)F)c4C3)c2F)c(-c2ccnc(NC3CC4(C3)CS(=O)(=O)C4)n2)s1 [Example 30, 4-(difluoromethoxy)-N-(3-(5-(2-((2,2-dioxido-2-thiaspiro [3.3]heptan-6-yl)amino)pyrimidin-4-yl)-2-(3-methyl-3,8-diazabicyclo [3.2.1]-octan-8-yl)thiazol-4-yl)-2-fluorophenyl)-isoindoline-2-sulfonamide]	28.5 nM
COc1cccc2c1CN(S(=O)(=O)Nc1cccc(-c3nc(N4C5CCC4CN(C)C5)sc3-c3ccnc(NC4CC5(C4)CS(=O)(=O)C5)n3)c1F)C2 [Example 31, N-(3-(5-(2-((2,2-dioxido-2-thiaspiro-[3.3]-heptan-6-yl)amino)pyrimidin-4-yl)-2-(3-methyl-3,8-diazabicyclo [3.2.1]-octan-8-yl)-thiazol-4-yl)-2-fluoro-phenyl)-4-methoxy-isoindoline-2-sulfonamide]	30.2 nM
CN1CC2CCC(C1)N2c1nc(-c2cccc(NS(=O)(=O)N3Cc4cccc(C(F)(F)F)c4C3)c2F)c(-c2ccnc(NC3CC4(C3)CS(=O)(=O)C4)n2)s1 [Example 32, N-(3-(5-(2-((2,2-dioxido-2-thiaspiro-[3.3]-heptan-6-yl)amino)pyrimidin-4-yl)-2-(3-methyl-3,8-diazabicyclo[3.2.1]-octan-8-yl)-thiazol-4-yl)-2-fluoro-phenyl)-4-(trifluoro-methyl)isoindoline-2-sulfonamide]	23.1 nM
O=S1(=O)CC2(CC(Nc3nccc(-c4sc(N5C6CCC5CN(CC(F)(F)F)C6)nc4-c4cccc(NS(=O)(=O)N5Cc6cccc(OC(F)F)c6C5)c4F)n3)C2)C1 [Example 33, 4-(difluoromethoxy)-N-(3-(5-(2-((2,2-dioxido-2-thiaspiro [3.3]heptan-6-yl)amino)pyrimidin-4-yl)-2-(3-(2,2,2-trifluoroethyl)-3,8-diazabicyclo-[3.2.1]octan-8-yl)thiazol-4-yl)-2-fluorophenyl) isoindoline-2-sulfonamide]	153 nM
O=S1(=O)CC2(CC(Nc3nccc(-c4sc(C56CC(C5)C6)nc4-c4cccc(NS(=O)(=O)N5CCc6cc(F)c(F)cc65)c4F)n3)C2)C1 [Example 34, N-(3-(2-(bicyclo [1.1.1]pentan-1-yl)-5-(2-((2,2-dioxido-2-thiaspiro[3.3]heptan-6-yl)amino)-pyrimidin-4-yl)thiazol-4-yl)-2-fluorophenyl)-5,6-difluoroindoline-1-sulfonamide]	116 nM
O=S1(=O)CC2(CC(Nc3nccc(-c4sc(C56CC(C5)C6)nc4-c4cccc(NS(=O)(=O)N5CCc6cc(C(F)(F)F)ccc65)c4F)n3)C2)C1 [Example 35, N-(3-(2-(bicyclo [1.1.1]pentan-1-yl)-5-(2-((2,2-dioxido-2-thiaspiro[3.3]heptan-6-yl)amino)-pyrimidin-4-yl)thiazol-4-yl)-2-fluorophenyl)-5-(trifluoromethyl)-indoline-1-sulfonamide]	1590 nM
O=S1(=O)CC2(CC(Nc3nccc(-c4sc(C56CC(C5)C6)nc4-c4cccc(NS(=O)(=O)N5CCc6ccc(OC(F)(F)F)cc65)c4F)n3)C2)C1 [Example 36, N-(3-(2-(bicyclo [1.1.1]pentan-1-yl)-5-(2-((2,2-dioxido-2-thiaspiro [3.3]heptan-6-yl)amino)-pyrimidin-4-yl)thiazol-4-yl)-2-fluorophenyl)-6-(trifluoromethoxy) indoline-1-sulfonamide]	195 nM
O=S1(=O)CC2(CC(Nc3nccc(-c4sc(C56CC(C5)C6)nc4-c4cccc(NS(=O)(=O)N5CCc6c(F)cc(F)cc65)c4F)n3)C2)C1 [Example 37, N-(3-(2-(bicyclo [1.1.1]pentan-1-yl)-5-(2-((2,2-dioxido-2-thiaspiro[3.3]heptan-6-yl)amino)-pyrimidin-4-yl)thiazol-4-yl)-2-fluorophenyl)-4,6-difluoroindoline-1-sulfonamide]	74.5 nM
O=S1(=O)CC2(CC(Nc3nccc(-c4sc(N5C6CCC5CN(CC(F)(F)F)C6)nc4-c4cccc(NS(=O)(=O)N5CCc6ccccc65)c4F)n3)C2)C1 [Example 38, N-(3-(5-(2-((2,2-dioxido-2-thiaspiro-[3.3]-heptan-6-yl)amino)pyrimidin-4-yl)-2-(3-(2,2,2-trifluoroethyl)-3,8-diazabicyclo[3.2.1]-octan-8-yl)thiazol-4-yl)-2-fluorophenyl)-indoline-1-sulfonamide]	263 nM
O=S1(=O)CC2(CC(Nc3nccc(-c4sc(N5C6CCC5CN(CC(F)(F)F)C6)nc4-c4cccc(NS(=O)(=O)N5CCc6ccc(C(F)(F)F)cc65)c4F)n3)C2)C1 [Example 39, N-(3-(5-(2-((2,2-dioxido-2-thiaspiro-[3.3]-heptan-6-yl)amino)pyrimidin-4-yl)-2-(3-(2,2,2-trifluoroethyl)-3,8-diazabicyclo[3.2.1]-octan-8-yl)thiazol-4-yl)-2-fluorophenyl)-6-(trifluoromethyl)-indoline-1-sulfonamide]	752 nM

From patent publication US20260274833A1 (NiKang Therapeutics, Inc., priority 2022, published 2026)
